Reference: PubChem BioAssay (NCI)
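Values below derive from 48-hour exposures of cells grown in 96-well plates, with endpoints linearly interpolated between the two concentrations bracketing the appropriate inhibition level. At the TGI there is no net growth.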

How the values were obtained:
Assay in all cases: growth of human tumour cells (NCI), 48 h
A549 NSCLC = tested on: A549 NSCLC
MOLT-4 leukemia = tested on: MOLT-4 leukemia
SK-OV-3 ovarian = tested on: SK-OV-3 ovarian
SK-MEL-28 melanoma = tested on: SK-MEL-28 melanoma
MALME-3M melanoma = tested on: MALME-3M melanoma
NCI-H226 lung = tested on: NCI-H226 lung
NCI-H522 lung = tested on: NCI-H522 lung
RXF 393 renal = tested on: RXF 393 renal

Row | SMILES | TGI (A549 NSCLC) [µM] | TGI (MOLT-4 leukemia) [µM] | TGI (SK-OV-3 ovarian) [µM] | TGI (SK-MEL-28 melanoma) [µM] | TGI (MALME-3M melanoma) [µM] | TGI (NCI-H226 lung) [µM] | TGI (NCI-H522 lung) [µM] | TGI (RXF 393 renal) [µM]
1 | Cn1c(=O)ccc2cc(C(=O)c3ccccc3)ccc21 | > 100 | > 100 | > 100 | > 100 | > 100 | 99.7 | 82.7 | 
2 | O=C1OC(=O)C2C1C1(c3ccccc3)OC2(c2ccccc2)c2c(Br)c(Br)c(Br)c(Br)c21 (stereo not drawn) | > 100 | > 100 | 74.9 |  | > 100 | > 100 | > 100 | > 100
3 | CC12CCC(C)(c3cc(O)c(O)cc31)c1cc(O)c(O)cc12 | 94.4 | 42.5 | 36.7 | 34.1 | 45.2 |  | 6.38 | 31.3
4 | Cc1ccc(Sc2cc([N+](=O)[O-])cc(Sc3ccc(C)cc3)c2Sc2ccc(C)cc2)cc1 | > 100 | > 100 |  |  | > 100 | > 100 |  | > 100
5 | Cn1c(=O)c2nc3sc4ccccc4c(=N)n3c2n(C)c1=O | > 100 | > 100 | > 100 | > 100 | > 100 | > 100 | > 100 | > 100
6 | Fc1cccc(C2SCc3nc4ccccc4n32)c1 (stereo not drawn) | > 100 | > 100 | > 100 | > 10 | > 100 | > 100 | 96.1 | > 10
7 | CC(=O)NC1C(OCc2ccccc2)OC(COC(=O)CCCCCCCCCCNC(=O)CCNc2ccc([N+](=O)[O-])c3[nH]c4ccc(O)cc4c(=O)c23)C(O)C1OC(C)C(=O)N[C@H](C(=O)N[C@H](CCC(=O)O)C(N)=O)C(C)C (stereo partly drawn) | > 100 | > 100 | > 100 | > 100 | > 100 | > 100 | 40.4 | > 100
8 | NCCCSCC(=O)O | > 100 | > 100 | > 100 | > 100 | > 100 | > 100 | > 100 | > 100
9 | O=CN/C=C\c1cc(O)ccc1O | > 100 | 70.6 | > 100 | > 64.9 | 28.9 | > 100 | 10 | 
10 | CC(=O)Oc1cc(OC(C)=O)c(OC(C)=O)c2c1CC1C(=O)C3(CCc4ccccc43)C(=O)C1C2 (stereo not drawn) | 44.6 |  | 58.8 | 36.5 | 20.1 |  |  | 28.6
11 | O=c1cc(/C=C/c2ccccc2)c2ccc(O/C(=C\c3ccccc3)c3nc4ccccc4c(=O)o3)cc2o1 | > 100 | 74.3 | > 100 | 34.5 | > 100 |  |  | 
12 | COc1cccc(/C=N/[N-]C(N)=O)c1[O-].[Cu+2].c1ccncc1 | 34.9 | 69.3 | 49.7 | 33.9 | 28.3 | 44.6 | 34.6 | 28.6
13 | O=C1OC(/C=C/c2ccccc2)C(=O)C1=O (stereo not drawn) | > 100 | > 100 | > 100 | > 100 | > 100 | > 100 | > 100 | > 100
14 | CCC1(O)CC(c2ccccc2)N(C)C(c2ccccc2)C1 (stereo not drawn) | > 100 | > 100 | > 100 | > 100 | > 100 | > 100 | > 100 | > 100
15 | C=C1[C@@H]2CCC(C)(C)[C@H]1CCC(=O)[C@@H]2C(=O)OC | > 100 | > 100 |  | > 100 | > 100 | > 100 |  | > 100
16 | C[C@]12CC[C@H](O)CC1CCC[C@@H]2O (stereo partly drawn) | > 100 | > 100 | > 100 | > 100 | > 100 |  | > 100 | > 100
17 | O=C1C2Cc3ccccc3CN2C(=O)N1CCN1CCOCC1 (stereo not drawn) | > 100 | > 100 |  | > 100 | > 100 | > 100 | > 100 | 
18 | O=c1c2ccc(Br)cc2nc(-c2ccccc2)n1NC1OC(CO)C(O)C(O)C1O (stereo not drawn) | > 100 | > 100 | > 100 | > 100 | > 100 | > 100 | > 100 | 
19 | Cc1cc2c(C=O)[nH]nc2c(C#N)c1C | > 100 | > 100 | > 100 | > 100 | > 100 |  | 22.7 | 
20 | O=C(NCCOCCO)c1ccc(O)cc1 | > 100 | > 100 | > 100 | > 100 |  |  | > 100 | > 100
21 | CCn1cc(C(=O)O)c(=O)c2cc(F)c(N3CCNCC3)nc21 | > 100 | > 100 | > 100 | > 100 | > 100 | > 100 | > 100 | 
22 | CN=C(NC#N)NCc1ccccc1 | > 100 | > 100 | > 100 | > 100 | > 100 | > 100 | > 100 | 
23 | CCCCCCCCCCCCCCCc1nc(SCC(=O)O)n[nH]1 | > 100 | > 100 | > 100 | > 100 | > 100 |  | > 100 | > 100
